Reference: ChEMBL document CHEMBL4396937, “Synthesis of new triazole fused imidazo[2,1-b]thiazole hybrids with emphasis on Staphylococcus aureus virulence factors” (Bioorg Med Chem Lett, 2019)
In brackets after ≈: the same amount, converted by molar mass.

Key:
Assay type in all cases: functional
Bacillus subtilis [1] = experiment: Antibacterial activity against Bacillus subtilis MTCC 121 assessed as reduction in bacterial growth incubated for 24 hrs by agar well diffusion method; details: MTCC 121, 24 h
Raoultella planticola [2] = experiment: Antibacterial activity against Klebsiella planticola MTCC 530 assessed as reduction in bacterial growth incubated for 24 hrs by agar well diffusion method; details: MTCC 530, 24 h
Candida albicans [3] = experiment: Fungicidal activity against Candida albicans MTCC 3017 assessed as reduction in fungal survival incubated for 24 hrs followed by transfer of microbial suspension to agar plates and measured at 24 hrs post transfer by agar well diffusion method; details: MTCC 3017, 24 h
Escherichia coli [4] = experiment: Antibacterial activity against Escherichia coli MTCC 739 assessed as reduction in bacterial growth incubated for 24 hrs by agar well diffusion method; details: MTCC 739, 24 h
Staphylococcus aureus [5] = experiment: Bactericidal activity against Staphylococcus aureus MTCC 96 assessed as reduction in bacterial survival incubated for 24 hrs followed by transfer of microbial suspension to agar plates and measured at 24 hrs post transfer by agar well diffusion method; details: MTCC 96, 24 h
Micrococcus luteus [6] = experiment: Bactericidal activity against Micrococcus luteus MTCC 2470 assessed as reduction in bacterial survival incubated for 24 hrs followed by transfer of microbial suspension to agar plates and measured at 24 hrs post transfer by agar well diffusion method; details: MTCC 2470, 24 h
Candida albicans [7] = experiment: Antifungal activity against Candida albicans MTCC 3017 assessed as reduction in fungal growth incubated for 24 hrs by agar well diffusion method; details: MTCC 3017, 24 h
Staphylococcus aureus [8] = experiment: Antibacterial activity against Staphylococcus aureus MTCC 96 assessed as reduction in bacterial growth incubated for 24 hrs by agar well diffusion method; details: MTCC 96, 24 h
Raoultella planticola [9] = experiment: Bactericidal activity against Klebsiella planticola MTCC 530 assessed as reduction in bacterial survival incubated for 24 hrs followed by transfer of microbial suspension to agar plates and measured at 24 hrs post transfer by agar well diffusion method; details: MTCC 530, 24 h
Staphylococcus aureus [10] = experiment: Bactericidal activity against Staphylococcus aureus MLS-16 MTCC 2940 assessed as reduction in bacterial survival incubated for 24 hrs followed by transfer of microbial suspension to agar plates and measured at 24 hrs post transfer by agar well diffusion method; details: MLS-16 MTCC 2940, 24 h
Escherichia coli [11] = experiment: Bactericidal activity against Escherichia coli MTCC 739 assessed as reduction in bacterial survival incubated for 24 hrs followed by transfer of microbial suspension to agar plates and measured at 24 hrs post transfer by agar well diffusion method; details: MTCC 739, 24 h
Pseudomonas aeruginosa [12] = experiment: Bactericidal activity against Pseudomonas aeruginosa MTCC 2453 assessed as reduction in bacterial survival incubated for 24 hrs followed by transfer of microbial suspension to agar plates and measured at 24 hrs post transfer by agar well diffusion method; details: MTCC 2453, 24 h
Pseudomonas aeruginosa [13] = experiment: Antibacterial activity against Pseudomonas aeruginosa MTCC 2453 assessed as reduction in bacterial growth incubated for 24 hrs by agar well diffusion method; details: MTCC 2453, 24 h
Staphylococcus aureus [14] = experiment: Antibacterial activity against Staphylococcus aureus MLS-16 MTCC 2940 assessed as reduction in bacterial growth incubated for 24 hrs by agar well diffusion method; details: MLS-16 MTCC 2940, 24 h
Bacillus subtilis [15] = experiment: Bactericidal activity against Bacillus subtilis MTCC 121 assessed as reduction in bacterial survival incubated for 24 hrs followed by transfer of microbial suspension to agar plates and measured at 24 hrs post transfer by agar well diffusion method; details: MTCC 121, 24 h
Micrococcus luteus [16] = experiment: Antibacterial activity against Micrococcus luteus MTCC 2470 assessed as reduction in bacterial growth incubated for 24 hrs by agar well diffusion method; details: MTCC 2470, 24 h

SMILES | MIC (Bacillus subtilis [1]) [µg/mL] | MIC (Escherichia coli [4]) [µg/mL] | MIC (Candida albicans [7]) [µg/mL] | MIC (Staphylococcus aureus [8]) [µg/mL] | MIC (Pseudomonas aeruginosa [13]) [µg/mL] | MIC (Staphylococcus aureus [14]) [µg/mL] | MIC (Micrococcus luteus [16]) [µg/mL] | MIC (Raoultella planticola [2]) [µg/mL] | MFC (Candida albicans [3]) [µg/mL] | MBC (Staphylococcus aureus [5]) [µg/mL] | MBC (Micrococcus luteus [6]) [µg/mL] | MBC (Raoultella planticola [9]) [µg/mL] | MBC (Staphylococcus aureus [10]) [µg/mL] | MBC (Escherichia coli [11]) [µg/mL] | MBC (Pseudomonas aeruginosa [12]) [µg/mL] | MBC (Bacillus subtilis [15]) [µg/mL]
COc1ccc(-c2nc3sccn3c2C(=O)c2cn(-c3cc(OC)c(OC)c(OC)c3)nn2)cc1 | 15.6 (≈ 31.7 µM) | > 125 | 7.8 (≈ 15.9 µM) | 15.6 (≈ 31.7 µM) | > 125 | 7.8 (≈ 15.9 µM) | 15.6 (≈ 31.7 µM) | > 125 | 15.6 (≈ 31.7 µM) | 31.2 (≈ 63.5 µM) | 31.2 (≈ 63.5 µM) | > 125 | 15.6 (≈ 31.7 µM) | > 125 | > 125 | 31.2 (≈ 63.5 µM)
COc1cc(-n2cc(C(=O)c3c(-c4ccc(Cl)cc4)nc4sccn34)nn2)cc(OC)c1OC | 3.9 (≈ 7.86 µM) | > 125 | 15.6 (≈ 31.5 µM) | 7.8 (≈ 15.7 µM) | > 125 | 7.8 (≈ 15.7 µM) | 15.6 (≈ 31.5 µM) | > 125 | 31.2 (≈ 62.9 µM) | 15.6 (≈ 31.5 µM) | 31.2 (≈ 62.9 µM) | > 125 | 15.6 (≈ 31.5 µM) | > 125 | > 125 | 7.8 (≈ 15.7 µM)
O=C(c1cn(-c2ccc(C(F)(F)F)cc2)nn1)c1c(-c2ccccc2)nc2sccn12 | 3.9 (≈ 8.88 µM) | > 125 | 15.6 (≈ 35.5 µM) | 3.9 (≈ 8.88 µM) | > 125 | 7.8 (≈ 17.8 µM) | 3.9 (≈ 8.88 µM) | > 125 | 31.2 (≈ 71 µM) | 7.8 (≈ 17.8 µM) | 7.8 (≈ 17.8 µM) | > 125 | 15.6 (≈ 35.5 µM) | > 125 | > 125 | 7.8 (≈ 17.8 µM)
O=C(c1cn(-c2ccc(F)cc2)nn1)c1c(-c2ccc(Cl)cc2)nc2sccn12 | 3.9 (≈ 9.2 µM) | > 125 | 15.6 (≈ 36.8 µM) | 3.9 (≈ 9.2 µM) | > 125 | 7.8 (≈ 18.4 µM) | 3.9 (≈ 9.2 µM) | 7.8 (≈ 18.4 µM) | > 125 | 7.8 (≈ 18.4 µM) | 7.8 (≈ 18.4 µM) | 15.6 (≈ 36.8 µM) | 15.6 (≈ 36.8 µM) | > 125 | > 125 | 7.8 (≈ 18.4 µM)

More lines, in order of falling MIC (Bacillus subtilis [1]), values ahead:

MIC (Bacillus subtilis [1]) [µg/mL] | MIC (Escherichia coli [4]) [µg/mL] | MIC (Candida albicans [7]) [µg/mL] | MIC (Staphylococcus aureus [8]) [µg/mL] | MIC (Pseudomonas aeruginosa [13]) [µg/mL] | MIC (Staphylococcus aureus [14]) [µg/mL] | MIC (Micrococcus luteus [16]) [µg/mL] | SMILES | MIC (Raoultella planticola [2]) [µg/mL] | MFC (Candida albicans [3]) [µg/mL] | MBC (Staphylococcus aureus [5]) [µg/mL] | MBC (Micrococcus luteus [6]) [µg/mL] | MBC (Raoultella planticola [9]) [µg/mL] | MBC (Staphylococcus aureus [10]) [µg/mL] | MBC (Escherichia coli [11]) [µg/mL] | MBC (Pseudomonas aeruginosa [12]) [µg/mL] | MBC (Bacillus subtilis [15]) [µg/mL]
3.9 (≈ 7.76 µM) | > 125 | 7.8 (≈ 15.5 µM) | 3.9 (≈ 7.76 µM) | > 125 | 7.8 (≈ 15.5 µM) | 3.9 (≈ 7.76 µM) | O=C(c1cn(-c2ccc(F)cc2Br)nn1)c1c(-c2ccc(Cl)cc2)nc2sccn12 | 3.9 (≈ 7.76 µM) | 15.6 (≈ 31 µM) | 7.8 (≈ 15.5 µM) | 7.8 (≈ 15.5 µM) | 7.8 (≈ 15.5 µM) | 15.6 (≈ 31 µM) | > 125 | > 125 | 7.8 (≈ 15.5 µM)
3.9 (≈ 8.95 µM) | > 125 | 15.6 (≈ 35.8 µM) | 3.9 (≈ 8.95 µM) | > 125 | 7.8 (≈ 17.9 µM) | 3.9 (≈ 8.95 µM) | COc1ccc(-c2nc3sccn3c2C(=O)c2cn(-c3ccc(Cl)cc3)nn2)cc1 | > 125 | 31.2 (≈ 71.6 µM) | 7.8 (≈ 17.9 µM) | 7.8 (≈ 17.9 µM) | > 125 | 15.6 (≈ 35.8 µM) | > 125 | > 125 | 7.8 (≈ 17.9 µM)
3.9 (≈ 8.45 µM) | > 125 | 15.6 (≈ 33.8 µM) | 3.9 (≈ 8.45 µM) | > 125 | 7.8 (≈ 16.9 µM) | 3.9 (≈ 8.45 µM) | COc1cc(-n2cc(C(=O)c3c(-c4ccccc4)nc4sccn34)nn2)cc(OC)c1OC | 31.2 (≈ 67.6 µM) | 31.2 (≈ 67.6 µM) | 7.8 (≈ 16.9 µM) | 7.8 (≈ 16.9 µM) | 62.5 (≈ 135 µM) | 15.6 (≈ 33.8 µM) | > 125 | > 125 | 7.8 (≈ 16.9 µM)
